{"source": "paper PMC7340446", "about": "“Optimization of PTH/PTHrP Hybrid Peptides to Derive a Long‐Acting PTH Analog (LA‐PTH)” (JBMR Plus, 2020)", "key": {"[1]": {"test": "Pharmacokinetics in normal rats, i.v., plasma peptide by ELISA", "assay_type": "in vivo, rat", "conditions": "i.v. 10 nmol/kg, plasma with protease inhibitors, n = 4 (M‐PTH/PTHrP) or 3 (PTH(1–34))", "description": "For pharmacokinetic studies, plasma samples were prepared in the presence of protease inhibitors (aprotinin, leupeptin, EDTA). Plasma levels of PTH(1–34) were assessed by ELISA assay (Human PTH(1–34) Specific ELISA Kit; Immutopics Inc, San Clemente, CA, USA), and plasma levels of M‐PTH/PTHrP were assessed by ELISA assay (PTH‐RP 1–34 Human Enzyme Immunoassay Kit; Peninsula Laboratories International, San Carlos CA, USA) using M‐PTH/PTHrP peptides as standard solutions.\nFigure 3 Pharmacodynamic and pharmacokinetic profiles of M‐PTH/PTHrP and PTH(1–34) in rats. (A) Effects of M‐PTH/PTHrP and PTH(1–34) on blood ionized Ca in TPTX rats by i.v. injection. M‐PTH/PTHrP and PTH(1–34) were injected intravenously in TPTX rats at the indicated doses, and blood samples were collected from the tail vein measured for ionized Ca; data are means ± SE; n = 5 or 3 (PTH(1–34)). *p < 0.05, **p < 0.01, ***p < 0.005 M‐PTH/PTHrP or PTH(1–34) versus TPTX‐vehicle. […] M‐PTH/PTHrP and PTH(1–34) each at a dose of 10 nmol/kg were i.v. administered, and blood samples were collected from the jugular vein in the presence of proteinase inhibitors (Aprotinin, Leupeptin, and EDTA) and the plasma samples were assessed for peptide concentration using a hPTHrP(1–34)‐targeted EIA for M‐PTH/PTHrP and an hPTH(1–34)‐targeted ELISA for PTH(1–34). […]"}, "[2]": {"test": "Peptide solubility in aqueous buffers of neutral pH", "assay_type": "physicochemical", "conditions": "lyophilized peptide reconstituted at 1.5 mg/cc in PBS pH 7.4 or 10‐mM acetic acid, 24 hours room temperature, centrifuged, supernatant by BCA protein assay; versus M‐PTH(1‐14)/PTHrP(15‐36)"}, "[3]": {"tested_on": "amino‐terminal ECD portion of the PTH receptor", "conditions": "cited from earlier work", "from_the_text": "In this study, we systematically explored a series of hybrid molecules composed of PTH and PTHrP."}, "[4]": {"tested_on": "TPTX rats", "conditions": "orally available agonist; cited from earlier work", "from_the_text": "The low solubility observed for M‐PTH/PTHrP and related analogs containing the C‐terminal PTHrP(15–36) sequence when prepared at high concentrations in aqueous neutral buffer led us to explore amino acid substitutions that would improve solubility yet preserve activity on the PTHR1. […] The resulting analog, [Ala^1,3,12,18,22,Gln^10,Arg^11,Trp^14,Lys^26]‐PTH(1‐14)/PTHrP(15–36), ..."}}, "note": "Where no end group is shown, it is not given here.", "data": [{"molecule": "CC[C@H](C)[C@H](NC(=O)[C@H](CCC(=O)O)NC(=O)[C@H](CO)NC(=O)[C@@H](NC(=O)[C@@H](N)CO)C(C)C)C(=O)N[C@@H](CCC(N)=O)C(=O)N[C@@H](CC(C)C)C(=O)N[C@@H](CCSC)C(=O)N[C@@H](Cc1cnc[nH]1)C(=O)N[C@@H](CC(N)=O)C(=O)N[C@@H](CC(C)C)C(=O)NCC(=O)N[C@@H](CCCCN)C(=O)N[C@@H](Cc1cnc[nH]1)C(=O)N[C@@H](CC(C)C)C(=O)N[C@@H](CC(N)=O)C(=O)N[C@@H](CO)C(=O)N[C@@H](CCSC)C(=O)N[C@@H](CCC(=O)O)C(=O)N[C@@H](CCCN=C(N)N)C(=O)N[C@H](C(=O)N[C@@H](CCC(=O)O)C(=O)N[C@@H](Cc1c[nH]c2ccccc12)C(=O)N[C@@H](CC(C)C)C(=O)N[C@@H](CCCN=C(N)N)C(=O)N[C@@H](CCCCN)C(=O)N[C@@H](CCCCN)C(=O)N[C@@H](CC(C)C)C(=O)N[C@@H](CCC(N)=O)C(=O)N[C@@H](CC(=O)O)C(=O)N[C@H](C(=O)N[C@@H](Cc1cnc[nH]1)C(=O)N[C@@H](CC(N)=O)C(=O)N[C@@H](Cc1ccccc1)C(=O)O)C(C)C)C(C)C", "note": "[PTH(1‐34), reference compound]", "values": [{"measurement": "Time by which plasma concentration declined to the lowest detection level", "setting": "[1]", "result": "≤ 60", "unit": "min"}]}, {"molecule": "AVAEIQLMHQRAKWIQDARRRAFLHKLIAEIHTAEI [LA‐PTH, [Ala^1,3,12,Gln^10,Arg^11,Trp^14]PTH(1‐14)/[Ala^18,22,Lys^26]PTHrP(15‐36)COOH]", "values": [{"measurement": "Peptide solubility in PBS relative to 10 mM acetic acid", "setting": "[2]", "result": "improved peptide solubility"}]}, {"molecule": "PTHrP(15–36): C‐terminal PTHrP fragment binding the receptor ECD (IQDLRRRFFLHHLIAEIHTAEI; Parathyroid hormone-related protein; UniProt P12272 51-72, looked up, fragment)", "values": [{"measurement": "Affinity for the ECD relative to the PTH(15–34) fragment", "setting": "[3]", "result": "approximately twofold higher affinity"}]}, {"molecule": "Cc1cc(N2C(=O)NC(=O)C2(C)C)cc(C)c1CCS(=O)(=O)N1CCC2(CC1)N=C(c1ccc(OC(F)(F)F)cc1)NC2=O", "note": "[PCO371]", "values": [{"measurement": "Effect on sCa and sPi levels", "setting": "[4]", "result": "restore sCa and lower sPi levels"}]}]}
